Patent US9624224B2, “Inhibitors of Bruton's tyrosine kinase” (Pharmacyclics LLC, priority 2013, dated 2017)

Columns and labels:
Format in all cases: biochemical
BTK = target: T1, BTK (Homo sapiens, UniProt Q06187); experiment: Btk in vitro inhibitory activity (TR-FRET, mobility shift or radiometric filter binding kinase assay); conditions: determined using one of the methods outlined in Example 47a, 47b, and 47c
T1 construct: purified from insect cells as a full-length construct containing a N-terminal 6×-His tag; His6 (N); made in house; host or cells: insect cells (baculovirus, Sf21)
T1 sequence (Q06187 whole entry): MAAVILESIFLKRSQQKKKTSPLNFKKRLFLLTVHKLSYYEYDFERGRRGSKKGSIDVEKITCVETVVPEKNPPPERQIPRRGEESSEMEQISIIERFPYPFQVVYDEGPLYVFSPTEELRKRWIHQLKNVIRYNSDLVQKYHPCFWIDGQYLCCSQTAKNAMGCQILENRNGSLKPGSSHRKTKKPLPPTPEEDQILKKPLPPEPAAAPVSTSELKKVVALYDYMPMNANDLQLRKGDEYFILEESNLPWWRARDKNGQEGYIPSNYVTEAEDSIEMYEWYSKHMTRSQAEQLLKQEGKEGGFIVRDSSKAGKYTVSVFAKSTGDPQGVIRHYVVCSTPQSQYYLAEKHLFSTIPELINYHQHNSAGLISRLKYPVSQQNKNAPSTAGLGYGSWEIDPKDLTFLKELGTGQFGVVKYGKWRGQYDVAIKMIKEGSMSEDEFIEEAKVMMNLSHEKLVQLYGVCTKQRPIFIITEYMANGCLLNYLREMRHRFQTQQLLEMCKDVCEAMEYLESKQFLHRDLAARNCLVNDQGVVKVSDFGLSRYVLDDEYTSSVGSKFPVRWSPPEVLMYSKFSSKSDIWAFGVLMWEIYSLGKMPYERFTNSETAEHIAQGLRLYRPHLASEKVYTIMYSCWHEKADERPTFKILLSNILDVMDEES
Protocol: (§1) Btk kinase activity is determined using a time-resolved fluorescence resonance energy transfer (TR-FRET) methodology. Measurements are performed in a reaction volume of 50 μL using 96-well assay plates. […] The reaction is quenched by the addition of 1.2 equivalents of EDTA (relative to divalent cation) in 25 μL of 1× Lance buffer (Perkin-Elmer). Streptavidin-APC (Perkin-Elmer) and Eu-labeled p-Tyr100 antibody (Perkin-Elmer) in 1× Lance buffer are added in a 25 μL volume to give final concentrations of 100 nM and 2.5 nM, respectively, and the mixture is allowed to incubate for one hour. The TR-FRET signal is measured on a multimode plate reader with an excitation wavelength (λEx) of 330 nm and detection wavelengths (λEm) of 615 and 665 nm. Activity is determined by the ratio of the fluorescence at 665 nm to that at 615 nm. For each compound, enzyme activity is measured at various concentrations of compound. Negative control reactions are performed in the absence of inhibitor in replicates of six, and two no-enzyme controls are used to determine baseline fluorescence levels. Inhibition constants, Ki(app), ware obtained using the program BatchKi (Kuzmic et al. (2000), Anal. Biochem. 286:45-50). IC50s are obtained according to the equation: IC50={Ki(app)/(1+[ATP]/Km^ATP)}+[E]total/2;
(§2) For all kinases, [ATP]=Km^ATP, [Btk]total=0.5 nM and [Lck]total=6 nM.
Kinase activity is measured in vitro using electrophoretic mobility shift assay. The kinase reactions are assembled in a total volume of 25 μL in 384 well plates. […] The reaction is incubated for one hour and is quenched by the addition of 45 μL of termination buffer (100 mM HEPES, pH7.5, 0.01% Triton X-100, 30 mM EDTA). The terminated reactions are analyzed using 12 channel LabChip® 3000 microfluidic detection instrument (Caliper Life Sciences). The enzymatic phosphorylation of the peptide results in a change in net charge, enabling electrophoretic separation of product from substrate peptide. As substrate and product peptides are separated, two peaks of fluorescence are observed. Change in the relative fluorescence intensity of the substrate and product peaks is the parameter measured, reflecting enzyme activity. In the presence of an inhibitor, the ratio between product and substrate is altered: the signal of the product decreases, while the signal of the substrate increases.
Activity in each sample is determined as the product to sum ratio (PSR): P/(S+P), where P is the peak height of the product peptide and S is the peak height of the substrate peptide. For each compound, enzyme activity is measured at various concentrations (12 concentrations of compound spaced by 3× dilution intervals). Negative control samples (0%-inhibition in the absence of inhibitor) and positive control samples (100%-inhibition, in the presence of 20 mM EDTA) are assembled in replicates of four and are used to calculate %-inhibition values for each inhibitor at each concentration. Percent inhibition (Pinh) is determined using following equation: Pinh=(PSR0%−PSRinh)/(PSR0%−PSR100%)*100,
where PSRmh is the product sum ratio in the presence of inhibitor, PSR0% is the average product sum ration in the absence of inhibitor and PSR100% is the average product sum ratio in 100%-inhibition control samples;
The IC50 values of inhibitors are determined by 4 parameter sigmoidal dose-response model fitting of the inhibition curves (Pinh versus inhibitor concentration) using XLfit 4 software.
Human Btk kinase (Genbank accession # NP_000052) was purified from insect cells as a full-length construct containing a N-terminal 6×-His tag. Btk kinase activity was determined using a radiometric filter binding assay. Measurements are performed in a low μL reaction volume 384-well assay plates. […]

EGFR = EGFR (Homo sapiens, UniProt P00533); experiment: EGFR kinase inhibition (in vitro kinase assay)
EGFR, sequence (P00533 25-1210, species assumed): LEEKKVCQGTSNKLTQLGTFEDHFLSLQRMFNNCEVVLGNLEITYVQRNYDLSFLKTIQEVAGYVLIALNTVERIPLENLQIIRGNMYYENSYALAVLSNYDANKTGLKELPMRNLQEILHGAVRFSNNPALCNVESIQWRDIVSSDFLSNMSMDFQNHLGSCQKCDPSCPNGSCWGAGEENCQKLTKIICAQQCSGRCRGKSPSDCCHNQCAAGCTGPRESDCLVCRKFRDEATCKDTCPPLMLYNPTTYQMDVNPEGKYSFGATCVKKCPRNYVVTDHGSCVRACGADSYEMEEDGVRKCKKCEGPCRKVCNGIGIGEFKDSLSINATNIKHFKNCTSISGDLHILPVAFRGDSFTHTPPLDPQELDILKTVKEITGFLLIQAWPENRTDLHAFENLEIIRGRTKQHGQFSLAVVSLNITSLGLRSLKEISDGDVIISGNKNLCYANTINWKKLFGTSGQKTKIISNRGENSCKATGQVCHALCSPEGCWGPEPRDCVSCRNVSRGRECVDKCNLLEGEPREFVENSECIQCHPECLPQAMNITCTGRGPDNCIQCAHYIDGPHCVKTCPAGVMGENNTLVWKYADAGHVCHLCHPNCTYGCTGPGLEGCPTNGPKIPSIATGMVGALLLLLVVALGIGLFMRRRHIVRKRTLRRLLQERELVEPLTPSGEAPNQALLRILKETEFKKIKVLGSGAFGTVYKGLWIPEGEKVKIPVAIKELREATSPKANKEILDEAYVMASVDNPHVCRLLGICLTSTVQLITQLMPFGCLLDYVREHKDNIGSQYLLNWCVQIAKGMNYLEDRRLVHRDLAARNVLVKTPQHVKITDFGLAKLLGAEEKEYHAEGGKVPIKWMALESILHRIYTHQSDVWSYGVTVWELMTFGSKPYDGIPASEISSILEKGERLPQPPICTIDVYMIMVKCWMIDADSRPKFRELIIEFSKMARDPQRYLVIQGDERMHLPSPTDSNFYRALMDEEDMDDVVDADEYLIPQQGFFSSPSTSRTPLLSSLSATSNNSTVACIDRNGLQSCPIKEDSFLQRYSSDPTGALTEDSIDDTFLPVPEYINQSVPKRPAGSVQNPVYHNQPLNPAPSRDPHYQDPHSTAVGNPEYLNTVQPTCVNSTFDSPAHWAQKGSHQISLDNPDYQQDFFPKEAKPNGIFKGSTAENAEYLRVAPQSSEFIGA

Lck = Lck (Homo sapiens, UniProt P06239); experiment: Lck kinase inhibition (in vitro kinase assay)
Lck, sequence (P06239 whole entry, species assumed): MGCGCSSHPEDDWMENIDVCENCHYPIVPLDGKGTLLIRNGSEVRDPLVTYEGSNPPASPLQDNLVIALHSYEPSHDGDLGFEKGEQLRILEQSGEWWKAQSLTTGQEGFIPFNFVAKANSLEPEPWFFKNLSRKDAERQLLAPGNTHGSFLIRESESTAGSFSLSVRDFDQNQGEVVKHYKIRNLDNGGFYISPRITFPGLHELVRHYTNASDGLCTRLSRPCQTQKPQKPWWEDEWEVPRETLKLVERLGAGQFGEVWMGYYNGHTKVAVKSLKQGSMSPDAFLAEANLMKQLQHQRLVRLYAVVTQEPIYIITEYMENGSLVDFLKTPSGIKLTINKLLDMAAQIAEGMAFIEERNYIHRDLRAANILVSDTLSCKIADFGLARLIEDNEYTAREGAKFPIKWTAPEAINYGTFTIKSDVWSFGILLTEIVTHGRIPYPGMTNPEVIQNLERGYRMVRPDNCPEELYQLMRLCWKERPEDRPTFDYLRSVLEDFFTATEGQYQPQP
Protocol: as §1, §2

Jak3 = target: T2, Jak3 (Homo sapiens, UniProt P52333); experiment: Jak3 kinase inhibition (in vitro kinase assay)
T2 sequence (P52333 1-1124): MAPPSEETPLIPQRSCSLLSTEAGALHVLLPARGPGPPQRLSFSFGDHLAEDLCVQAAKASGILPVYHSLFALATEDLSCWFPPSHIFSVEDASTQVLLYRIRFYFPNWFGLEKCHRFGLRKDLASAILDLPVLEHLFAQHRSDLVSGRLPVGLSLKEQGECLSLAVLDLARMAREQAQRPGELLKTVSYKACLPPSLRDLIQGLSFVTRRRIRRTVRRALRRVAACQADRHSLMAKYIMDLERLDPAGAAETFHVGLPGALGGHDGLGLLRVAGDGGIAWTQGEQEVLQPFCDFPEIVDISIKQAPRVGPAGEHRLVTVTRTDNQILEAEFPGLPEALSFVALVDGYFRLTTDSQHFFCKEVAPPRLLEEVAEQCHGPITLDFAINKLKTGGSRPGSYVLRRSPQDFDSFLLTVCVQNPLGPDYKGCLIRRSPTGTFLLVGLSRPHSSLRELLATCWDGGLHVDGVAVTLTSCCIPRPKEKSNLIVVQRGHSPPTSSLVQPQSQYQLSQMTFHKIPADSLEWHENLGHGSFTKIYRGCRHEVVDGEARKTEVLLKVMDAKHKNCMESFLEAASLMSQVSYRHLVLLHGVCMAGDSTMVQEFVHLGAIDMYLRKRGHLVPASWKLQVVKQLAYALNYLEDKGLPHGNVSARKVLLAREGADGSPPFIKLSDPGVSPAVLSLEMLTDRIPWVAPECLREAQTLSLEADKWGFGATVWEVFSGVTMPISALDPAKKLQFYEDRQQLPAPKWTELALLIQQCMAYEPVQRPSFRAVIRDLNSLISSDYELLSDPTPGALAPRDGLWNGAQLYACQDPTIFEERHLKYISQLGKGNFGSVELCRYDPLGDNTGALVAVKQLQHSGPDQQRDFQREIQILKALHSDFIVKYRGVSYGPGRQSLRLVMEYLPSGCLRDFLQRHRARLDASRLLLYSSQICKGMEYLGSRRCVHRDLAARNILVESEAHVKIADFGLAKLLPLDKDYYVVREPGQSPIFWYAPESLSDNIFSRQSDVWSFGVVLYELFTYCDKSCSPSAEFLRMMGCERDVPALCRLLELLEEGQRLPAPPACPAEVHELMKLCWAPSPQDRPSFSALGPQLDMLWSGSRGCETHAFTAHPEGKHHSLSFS

## CN(C/C=C/C(=O)N1CC[C@@H](n2nc(-c3ccc(C(=O)Nc4ncc(C5CC5)s4)cc3)c3c(N)ncnc32)C1)C1CC1 [Example 7, (R,E)-4-(4-amino-1-(1-(4-(cyclopropyl(methyl)amino)but-2-enoyl)pyrrolidin-3-yl)-1H-pyrazolo[3,4-d]pyrimidin-3-yl)-N-(5-cyclopropylthiazol-2-yl)benzamide]
BTK
  IC50: < 100 nM
EGFR
  IC50: < 1 nM
Lck
  IC50: < 1 nM
Jak3
  IC50: < 1 nM

## CN(C/C=C/C(=O)N1CC[C@@H](n2nc(-c3ccc(C(=O)Nc4ncc(C#N)s4)cc3)c3c(N)ncnc32)C1)C1CC1 [Example 12, (R,E)-4-(4-amino-1-(1-(4-(cyclopropyl(methyl)amino)but-2-enoyl)pyrrolidin-3-yl)-1H-pyrazolo[3,4-d]pyrimidin-3-yl)-N-(5-cyanothiazol-2-yl)benzamide]
BTK
  IC50: < 100 nM
EGFR
  IC50: < 100 nM
Lck
  IC50: < 100 nM
Jak3
  IC50: < 1 nM

## CN(C/C=C/C(=O)N1CC[C@@H](n2nc(-c3ccc(C(=O)Nc4nccs4)cc3)c3c(N)ncnc32)C1)C1CC1 [Example 13, (R,E)-4-(4-amino-1-(1-(4-(cyclopropyl(methyl)amino)but-2-enoyl)pyrrolidin-3-yl)-1H-pyrazolo[3,4-d]pyrimidin-3-yl)-N-(thiazol-2-yl)benzamide]
BTK
  IC50: < 100 nM
EGFR
  IC50: < 1 nM
Lck
  IC50: < 100 nM
Jak3
  IC50: < 100 nM

## CC#CC(=O)N[C@H]1CC[C@H](n2nc(-c3ccc(C(=O)Nc4cc(C(F)(F)F)ccn4)cc3)c3c(N)ncnc32)CC1 [Example 19, 4-(4-amino-1-((1,4-trans)-4-but-2-ynamidocyclohexyl)-1H-pyrazolo[3,4-d]pyrimidin-3-yl)-N-(4-(trifluoromethyl)pyridin-2-yl)benzamide]
BTK
  IC50: < 1 nM
EGFR
  IC50: 100 to 1000 nM
Lck
  IC50: < 100 nM
Jak3
  IC50: > 10000 nM

## CN(C/C=C/C(=O)N[C@H]1CC[C@H](n2nc(-c3ccc(C(=O)Nc4cc(C(F)(F)F)ccn4)cc3)c3c(N)ncnc32)CC1)C1CC1 [Example 20, 4-(4-amino-1-((1,4-trans)-4-((E)-4-(cyclopropyl(methyl)amino)but-2-enamido)cyclohexyl)-1H-pyrazolo[3,4-d]pyrimidin-3-yl)-N-(4-(trifluoromethyl)pyridin-2-yl)benzamide]
BTK
  IC50: < 1 nM
EGFR
  IC50: 100 to 1000 nM
Lck
  IC50: < 100 nM
Jak3
  IC50: > 10000 nM

## CNC/C=C/C(=O)N1CC[C@@H](n2nc(-c3ccc(C(=O)Nc4cc(C(F)(F)F)ccn4)cc3)c3c(N)ncnc32)C1 [Example 21, (R,E)-4-(4-amino-1-(1-(4-(methylamino)but-2-enoyl)pyrrolidin-3-yl)-1H-pyrazolo[3,4-d]pyrimidin-3-yl)-N-(4-(trifluoromethyl)pyridin-2-yl)benzamide]
BTK
  IC50: < 1 nM
EGFR
  IC50: < 100 nM
Lck
  IC50: < 100 nM
Jak3
  IC50: > 10000 nM

## CNC/C=C/C(=O)N1CC[C@@H](n2nc(-c3ccc(C(=O)Nc4cc(C)ccn4)cc3)c3c(N)ncnc32)C1 [Example 22, (R,E)-4-(4-amino-1-(1-(4-(methylamino)but-2-enoyl)pyrrolidin-3-yl)-1H-pyrazolo[3,4-d]pyrimidin-3-yl)-N-(4-methylpyridin-2-yl)benzamide]
BTK
  IC50: < 1 nM
EGFR
  IC50: 100 to 1000 nM
Lck
  IC50: 100 to 1000 nM
Jak3
  IC50: > 10000 nM

## Cc1ccnc(NC(=O)c2ccc(-c3nn([C@@H]4CCN(C(=O)/C=C/CNC5CC5)C4)c4ncnc(N)c34)cc2)c1 [Example 23, (R,E)-4-(4-amino-1-(1-(4-(cyclopropylamino)but-2-enoyl)pyrrolidin-3-yl)-1H-pyrazolo[3,4-d]pyrimidin-3-yl)-N-(4-methylpyridin-2-yl)benzamide]
BTK
  IC50: < 1 nM
EGFR
  IC50: 100 to 1000 nM
Lck
  IC50: 100 to 1000 nM
Jak3
  IC50: > 10000 nM

## Nc1ncnc2c1c(-c1ccc(C(=O)Nc3cc(C(F)(F)F)ccn3)cc1)nn2[C@@H]1CCN(C(=O)/C=C/CNC2CC2)C1 [Example 24, (R,E)-4-(4-amino-1-(1-(4-(cyclopropylamino)but-2-enoyl)pyrrolidin-3-yl)-1H-pyrazolo[3,4-d]pyrimidin-3-yl)-N-(4-(trifluoromethyl)pyridin-2-yl)benzamide]
BTK
  IC50: < 1 nM
EGFR
  IC50: < 100 nM
Lck
  IC50: < 100 nM
Jak3
  IC50: > 10000 nM

## Cc1ccnc(NC(=O)c2ccc(-c3nn([C@@H]4CCN(C(=O)/C=C/CN(C)C)C4)c4ncnc(N)c34)cc2)c1 [Example 25, (R,E)-4-(4-amino-1-(1-(4-(dimethylamino)but-2-enoyl)pyrrolidin-3-yl)-1H-pyrazolo[3,4-d]pyrimidin-3-yl)-N-(4-methylpyridin-2-yl)benzamide]
BTK
  IC50: < 1 nM
EGFR
  IC50: 1000 to 10000 nM
Lck
  IC50: > 10000 nM
Jak3
  IC50: > 10000 nM

## CN(C)C/C=C/C(=O)N1CC[C@@H](n2nc(-c3ccc(C(=O)Nc4cc(C(F)(F)F)ccn4)cc3)c3c(N)ncnc32)C1 [Example 26, (R,E)-4-(4-amino-1-(1-(4-(dimethylamino)but-2-enoyl)pyrrolidin-3-yl)-1H-pyrazolo[3,4-d]pyrimidin-3-yl)-N-(4-(trifluoromethyl)pyridin-2-yl)benzamide]
BTK
  IC50: < 1 nM
EGFR
  IC50: 100 to 1000 nM
Lck
  IC50: > 10000 nM
Jak3
  IC50: > 10000 nM

## C=CC(=O)N[C@H]1CC[C@H](n2nc(-c3ccc(C(=O)Nc4cc(C)ccn4)cc3)c3c(N)ncnc32)CC1 [Example 27, 4-(1-((1,4-trans)-4-acrylamidocyclohexyl)-4-amino-1H-pyrazolo[3,4-d]pyrimidin-3-yl)-N-(4-methylpyridin-2-yl)benzamide]
BTK
  IC50: < 1 nM
Lck
  IC50: > 10000 nM
Jak3
  IC50: > 10000 nM
